According to patent US8906904B2, “Alkoxy pyrazoles as soluble guanylate cyclase activators” (Boehringer Ingelheim International GmbH, priority 2012, dated 2014):
In brackets after ≈: the same amount, converted by molar mass.

Legend:
[1] = Assessment of solubility (McIlvaine buffers, 24 h shake, UPLC-UV); format: physicochemical; settings: kinetic from dmso stock
In short: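 Compounds from 10 mM DMSO stocks were shaken for 24 h at room temperature in McIlvaine buffers at pH 2.2, 4.5 and 6.8 (2.5% v/v DMSO final), then filtered. Filtrates were quantified by UPLC-UV at 254 nm against a 50:50 acetonitrile/water reference assumed fully dissolved, as a single determination.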

[2] = human liver microsome (HLM) metabolic stability assay; format: in vitro ADME; settings: human liver microsomes; % hepatic blood flow calculated from t1/2
In short: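 Compounds at 1 uM incubated with human liver microsomes plus NADPH at 37° C., sampled at 0, 5, 15, 30 and 60 min into cold acetonitrile and quantified by LC/MS/MS. t½ from the slope of ln % remaining vs time; CLint, CLh and % Qh derived from it (n=1).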

solubility at 24 h ([1]; pH 2.2, aqueous buffer) [µg/mL]	solubility at 24 h ([1]; pH 4.5, aqueous buffer) [µg/mL]	solubility at 24 h ([1]; pH 6.8, aqueous buffer) [µg/mL]	HLM (% Qh) [2] [% Qh]	Compound
100 (≈ 168 µM)	83 (≈ 139 µM)	88 (≈ 147 µM)	29	CCOc1c(C(=O)O)cnn1-c1cccc(-c2cccc(C)c2OCc2ccc3c(c2C)CCN(C[C@@H]2CCCO2)CC3)n1 [Compound 235]
120 (≈ 206 µM)	96 (≈ 165 µM)	92 (≈ 158 µM)	<24	COc1c(C(=O)O)cnn1-c1cccc(-c2cccc(C)c2OCc2ccc3c(c2C)CCN(C[C@H]2CCCCO2)C3)n1 [Compound 199]
95 (≈ 181 µM)	76 (≈ 145 µM)	76 (≈ 145 µM)	<24	COc1c(C(=O)O)cnn1-c1cccc(-c2cccc(C)c2OCc2ccc3c(c2)CCN(CC2CC2)C3)n1 [Compound 24]
89 (≈ 152 µM)	77 (≈ 132 µM)	85 (≈ 145 µM)	<24	CCOc1c(C(=O)O)cnn1-c1cccc(-c2cccc(C)c2OCc2ccc3c(c2C)CCN(C(C)COC)CC3)n1 (centres unmarked) [Compound 196]
85 (≈ 153 µM)	66 (≈ 119 µM)	72 (≈ 130 µM)	<24	CCOc1c(C(=O)O)cnn1-c1cccc(-c2cccc(C)c2OCc2ccc3c(c2)CCN(C2COC2)CC3)n1 [Compound 213]
96 (≈ 167 µM)	62 (≈ 108 µM)	60 (≈ 104 µM)	<24	COc1c(C(=O)O)cnn1-c1cccc(-c2cccc(C)c2OCc2ccc3c(c2Cl)CCN(CC(C)(C)C)C3)n1 [Compound 21]
100 (≈ 179 µM)	75 (≈ 134 µM)	81 (≈ 145 µM)	<24	COc1c(C(=O)O)cnn1-c1cccc(-c2cccc(C)c2OCc2cc(F)c3c(c2)CCN([C@@H]2CCOC2)C3)n1 [Compound 253]
110 (≈ 184 µM)	96 (≈ 161 µM)	83 (≈ 139 µM)	<24	CCOc1c(C(=O)O)cnn1-c1cccc(-c2cccc(C)c2OCc2ccc3c(c2C)CCN(C[C@@H]2CCCCO2)C3)n1 [Compound 236]
100 (≈ 172 µM)	73 (≈ 125 µM)	73 (≈ 125 µM)	40	CCOc1c(C(=O)O)cnn1-c1cccc(-c2cccc(C)c2OCc2cc(C)c3c(c2)CCN(CC2(C)COC2)C3)n1 [Compound 200]
94 (≈ 161 µM)	75 (≈ 129 µM)	74 (≈ 127 µM)	<24	CCc1cc(COc2c(C)cccc2-c2cccc(-n3ncc(C(=O)O)c3OC)n2)cc2c1CN(C1CCOCC1)CC2 [Compound 248]
100 (≈ 172 µM)	79 (≈ 136 µM)	92 (≈ 158 µM)	<24	CCOc1c(C(=O)O)cnn1-c1cccc(-c2cccc(C)c2OCc2ccc3c(c2)CCCN(C2CCCOC2)C3)n1 (centres unmarked) [Compound 245]
86 (≈ 141 µM)	70 (≈ 115 µM)	76 (≈ 124 µM)	<24	CCOc1c(C(=O)O)cnn1-c1cccc(-c2cccc(C)c2OCc2ccc3c(c2C)CCN(C[C@@H]2CCCCO2)CC3)n1 [Compound 215]
120 (≈ 204 µM)	92 (≈ 156 µM)	87 (≈ 148 µM)	<24	COc1c(C(=O)O)cnn1-c1cccc(-c2cccc(C)c2OCc2ccc3c(c2F)CCN(C[C@@H]2COCCO2)C3)n1 [Compound 231]
110 (≈ 193 µM)	87 (≈ 152 µM)	87 (≈ 152 µM)	<24	CCOc1c(C(=O)O)cnn1-c1cccc(-c2cccc(C)c2OCc2cc(C)c3c(c2)CCN(C(C)COC)C3)n1 (centres unmarked) [Compound 210]
110 (≈ 193 µM)	87 (≈ 153 µM)	88 (≈ 155 µM)	<24	COc1c(C(=O)O)cnn1-c1cccc(-c2cc(C)cc(C)c2OCc2ccc3c(c2)CCN(C2CCOCC2)C3)n1 [Compound 181]
110 (≈ 190 µM)	81 (≈ 140 µM)	86 (≈ 148 µM)	<24	COc1c(C(=O)O)cnn1-c1cccc(-c2cccc(C)c2OCc2cc(C#N)c3c(c2)CCN(C2CCOCC2)C3)n1 [Compound 250]
95 (≈ 155 µM)	82 (≈ 134 µM)	78 (≈ 127 µM)	<24	CCOc1c(C(=O)O)cnn1-c1cccc(-c2cccc(C)c2OCc2ccc3c(c2C)CCN(C[C@@H]2COCCO2)CC3)n1 [Compound 211]
95 (≈ 176 µM)	71 (≈ 131 µM)	81 (≈ 150 µM)	<24	COc1c(C(=O)O)cnn1-c1cccc(-c2cccc(C)c2OCc2ccc3c(c2C)CCN(C2COC2)C3)n1 [Compound 16]
96 (≈ 165 µM)	78 (≈ 134 µM)	81 (≈ 139 µM)	44	CCOc1c(C(=O)O)cnn1-c1cccc(-c2cccc(C)c2OCc2ccc3c(c2C)CCN(C[C@@H]2CCO2)CC3)n1 [Compound 228]

solubility at 24 h ([1]; pH 2.2, aqueous buffer) [µg/mL]	solubility at 24 h ([1]; pH 4.5, aqueous buffer) [µg/mL]	solubility at 24 h ([1]; pH 6.8, aqueous buffer) [µg/mL]	HLM (% Qh) [2] [% Qh]	Compound
100 (≈ 176 µM)	81 (≈ 142 µM)	84 (≈ 148 µM)	<24	CCOc1c(C(=O)O)cnn1-c1cccc(-c2cccc(C)c2OCc2cc(C)c3c(c2)CCN(C2CCOC2)C3)n1 (centres unmarked) [Compound 241]
100 (≈ 179 µM)	64 (≈ 115 µM)	80 (≈ 143 µM)	<24	COc1c(C(=O)O)cnn1-c1cccc(-c2cccc(C)c2OCc2cc(F)c3c(c2)CCN([C@H]2CCOC2)C3)n1 [Compound 254]
89 (≈ 153 µM)	76 (≈ 130 µM)	76 (≈ 130 µM)	<24	COc1c(C(=O)O)cnn1-c1cccc(-c2cccc(C)c2OCc2ccc3c(c2C)CCN(C2CCOCC2)CC3)n1 [Compound 184]
82 (≈ 137 µM)	72 (≈ 120 µM)	73 (≈ 122 µM)	<24	COc1c(C(=O)O)cnn1-c1cccc(-c2cccc(C)c2OCc2ccc3c(c2C)CCN(C[C@@H]2COCCO2)CC3)n1 [Compound 204]
81 (≈ 139 µM)	68 (≈ 117 µM)	69 (≈ 118 µM)	<24	COc1c(C(=O)O)cnn1-c1cccc(-c2cccc(C)c2OCc2ccc3c(c2C)CCN(C[C@@H]2CCCO2)CC3)n1 [Compound 223]
120 (≈ 206 µM)	85 (≈ 146 µM)	75 (≈ 129 µM)	89	COc1c(C(=O)O)cnn1-c1cccc(-c2cccc(C)c2OCc2ccc3c(c2)C(C)(C)CN(C2CCCOC2)C3)n1 (centres unmarked) [Compound 218]
97 (≈ 171 µM)	73 (≈ 128 µM)	69 (≈ 121 µM)	89	COc1c(C(=O)O)cnn1-c1cccc(-c2cccc(C)c2OCc2ccc3c(c2)C(C)(C)CN(C2CCOC2)C3)n1 (centres unmarked) [Compound 217]
97 (≈ 173 µM)	62 (≈ 111 µM)	85 (≈ 152 µM)	31	COc1c(C(=O)O)cnn1-c1cccc(-c2cccc(C)c2OCc2ccc3c(c2Cl)CCN(C2COC2)C3)n1 [Compound 17]
100 (≈ 168 µM)	83 (≈ 139 µM)	87 (≈ 146 µM)	43	CCOc1c(C(=O)O)cnn1-c1cccc(-c2cccc(C)c2OCc2ccc3c(c2C)CCN(CC2(C)COC2)CC3)n1 [Compound 190]
91 (≈ 169 µM)	38 (≈ 70.5 µM)	39 (≈ 72.4 µM)	29	COc1c(C(=O)O)cnn1-c1cccc(-c2cccc(C)c2OCc2ccc3c(c2)CCN(CC2CCC2)C3)n1 [Compound 25]
91 (≈ 160 µM)	71 (≈ 125 µM)	72 (≈ 127 µM)	25	COc1c(C(=O)O)cnn1-c1cccc(-c2cccc(C)c2OCc2cc(C)c3c(c2)CCN(CC2(C)COC2)C3)n1 [Compound 239]
120 (≈ 204 µM)	97 (≈ 165 µM)	91 (≈ 155 µM)	<24	COc1c(C(=O)O)cnn1-c1cccc(-c2cccc(C)c2OCc2ccc3c(c2F)CCN(C[C@H]2COCCO2)C3)n1 [Compound 234]
89 (≈ 153 µM)	73 (≈ 125 µM)	75 (≈ 129 µM)	26	CCOc1c(C(=O)O)cnn1-c1cccc(-c2cccc(C)c2OCc2ccc3c(c2C)CCN(C[C@@H]2CCOC2)C3)n1 [Compound 189]
110 (≈ 189 µM)	83 (≈ 142 µM)	80 (≈ 137 µM)	<24	CCOc1c(C(=O)O)cnn1-c1cccc(-c2cccc(C)c2OCc2cc(C)c3c(c2)CCN([C@@H]2CCCOC2)C3)n1 [Compound 195]
95 (≈ 170 µM)	72 (≈ 129 µM)	68 (≈ 122 µM)	38	COc1c(C(=O)O)cnn1-c1cccc(-c2cccc(C)c2OCc2ccc3c(c2Cl)CCN(C2CCC2)C3)n1 [Compound 20]
110 (≈ 188 µM)	81 (≈ 139 µM)	81 (≈ 139 µM)	<24	COc1ccc(OCc2ccc3c(c2C)CCN(C2CCOCC2)C3)c(-c2cccc(-n3ncc(C(=O)O)c3OC)n2)c1 [Compound 182]
97 (≈ 169 µM)	68 (≈ 118 µM)	73 (≈ 127 µM)	33	COc1c(C(=O)O)cnn1-c1cccc(-c2cccc(C)c2OCc2ccc3c(c2Cl)CCN(C2CCOC2)C3)n1 (centres unmarked) [Compound 22]
110 (≈ 184 µM)	76 (≈ 127 µM)	74 (≈ 124 µM)	89	COc1c(C(=O)O)cnn1-c1cccc(-c2cccc(C)c2OCc2ccc3c(c2)C(C)(C)CN(CC2COCCO2)C3)n1 (centres unmarked) [Compound 219]
100 (≈ 172 µM)	79 (≈ 136 µM)	76 (≈ 130 µM)	<24	COc1c(C(=O)O)cnn1-c1cccc(-c2cc(C)cc(C)c2OCc2ccc3c(c2C)CCN(C2CCOCC2)C3)n1 [Compound 180]
